For assay [1], the system named is MRSA. The assay is described as follows: Hydroxyl radical assay (HPF) in bacteria. As to conditions: 10 μg/mL menadione, 135 J/cm^2. It counts as cell-based, methicillin-resistant Staphylococcus aureus. As to the method:
1.2.9.3 Hydroxyl radical HO′ assay: The hydroxyl radical was measured by 3′-(p-hydroxyphenyl) fluorescein (HPF) (Thermofisher). HPF is a new fluorescein derivative, and it is nonfluorescent until reacted with the hydroxyl radical or peroxynitrite anion. The MRSA were grown in BHI broth medium with shaking overnight. Cells were collected by centrifugation at 4,000 rpm for 5 minutes and resuspended in PBS in the stationary growth phase culture of 1×10^8 CFU/mL. The microbial suspension was transferred to a 35×12-mm dish, mixed with 10 μg/mL of menadione, and stained with 10 μM HPF solution per the manufacturer's instruction. The bacteria were irradiated with the blue light at 50 mW/cm^2 and the samples were collected each 15 minutes to be analyzed by Microplate Spectrofluorometer (SPECTRAmax®, Molecular Devices, USA) at λex=490 nm and λem=515 nm. The control and the menadione/dark groups were generated under the same conditions without irradiation.

In assay [2] the test system is P. aeruginosa. Description: Photoinactivation of planktonic cultures by menadione + antimicrobial blue light. It counts as cell-based, Pseudomonas aeruginosa PA01. As to conditions: menadione ⅛ MIC + aBL 90 J/cm^2 (50 mW/cm^2), 405 nm. As to the method:
The bacterial cells were grown in BHI broth medium shaken overnight. Cells were collected by centrifugation at 4,000 rpm for 5 minutes and suspended in PBS at a density of 10^8 colony-forming units (CFU)/mL (estimated by measuring the optical density at 600 nm; O.D 0.1=10^8 cells/mL). The microbial suspension in PBS was transferred to a 35×12-mm dish and mixed with different concentrations of menadione: 0, 0.5, 1 and 2 μg/mL for MRSA USA300, AF003 and IQ0064; 0, 1, 10 and 30 μg/mL for P. aeruginosa PA01; and 0, 16, 32, 64 and 128 μg/mL for E. coli ATCC 25922. After incubation in the dark at 25° C. for 1 hour, the planktonic suspension of cells at room temperature was irradiated using aBL (405 nm) at 50 mW/cm^2 with different radiant exposures (0-250 J/cm^2). During the aBL irradiation, 40 μL of samples were withdrawn every 15 minutes, and the CFUs were determined by 10-fold serial dilutions in PBS (10-1 to 10-7 dilution factors), plated on BHI agar plates as described previously [Ref. 17]. CFUs were counted after overnight incubation at 37° C. Experiments were performed in triplicate.

In assay [3] the test system is P. aeruginosa. Description: MIC of menadione by broth microdilution, with or without aBL. It counts as cell-based, Pseudomonas aeruginosa PA01. The procedure:
The MICs of menadione in different bacterial strains were determined by a standard broth microdilution assay according to the Clinical and Laboratory Standards Institute. Briefly, menadione was prepared at 100 mg/mL in Tween 80/DMSO (1:1) as a stock solution. The stock solution was diluted to 2048 μg/mL in BHI and then serial dilutions were performed to 1024-0.015 μg/mL in a 96-well plate. Then, a 10 μL stationary growth-phase culture of 10^8 CFU/mL bacteria in BHI broth was added to the 96-well plate containing the serial dilutions of menadione. The medium containing a similar amount of Tween 80/DMSO (1:1) served as a control. The microplates were incubated at 37° C. for 24 hours and the lowest concentration of the compound capable of completely inhibiting bacterial growth was referred to as the MIC.
However, we investigated the effects of aBL (50 mW/cm^2) in potentiating the antibacterial activities of menadione in the three strains of bacteria. […] The highest fluence that we investigated was 125 J/cm^2, when we irradiated the bacteria for 42 minutes.

The subject of assay [4] is E. coli biofilms in ex-vivo explants. Description: Photoinactivation of biofilms in ex vivo porcine partial thickness wounds by menadione + aBL. It counts as cell-based, Escherichia coli. The procedure: (§1) Skin was handled and sanitized with 70% isopropanol solution after hair shaving. The explants and inner wounds were created using a 12 mm and 4 mm biopsy punches respectively. The explants were placed in 12 wells plates using a (8 μm pore) inserts (Corning™ Falcon™). 1 mL of DMEM media was added to each well in the plate before the insert. After 24 hours, the inner wounds in the explants were inoculated with 20 μL of 10^8 CFU/mL of bacterial solution. After that, the explants were incubated at 37° C. and 5% CO2 for 48 hours to ensure the growth of a mature bacterial biofilm. The inner wounds of the explants were replenished daily with fresh BHI media to ensure that the wounds are hydrated.
(§2) 48 hours following the inoculation, mature monobacterial biofilms of MRSA, P. aeruginosa, and E. coli were obtained with 8.00 log10 CFU/g per wound bed on each explant. MRSA biofilms in explant were reduced by 0.81 log10 CFU/g after the treatment of just aBL 250 J/cm^2 (50 mW/cm^2). However, MRSA biofilms in ex-vivo porcine skin were reduced by up to 4.18 log10 CFU/g when treated with aBL combined with menadione (200 μg/mL). For MRSA biofilms, the log reduction of mature monobacterial biofilm increased as the menadione concentration increased (see FIGS. 16A-16B). […]

Assay [5] deals with S. aureus MN8. As to conditions: S. aureus MN8 cultured aerobically vs anaerobically; cited from earlier work.
In assay [6] the test system is MRSA biofilms in ex-vivo porcine skin. The assay is described as follows: Photoinactivation of biofilms in ex vivo porcine partial thickness wounds by menadione + aBL. It counts as cell-based, methicillin-resistant Staphylococcus aureus. As to the method:
as §1, §2

Like-named read-outs stand apart in the source and are kept apart here.

As for `CC1=CC(=O)c2ccccc2C1=O` [menadione, 2-methyl-1,4-naphthoquinone], in assay [1], the “hydroxyl radical (HPF), menadione+aBL vs aBL alone” value was found to be 1.77 times. For the same compound, the “eradication by aBL combined with menadione” value in assay [2] turned out to be 4.54 log10 CFU/mL. Also, the minimum inhibitory concentration (MIC) in assay [3] (Pseudomonas aeruginosa, light or radiation study, 5 min, aBL 15.62 J/cm^2 (5 mins.), 50 mW/cm^2, read-out: MIC) was 64 µg/mL; in assay [3] (Pseudomonas aeruginosa, light or radiation study, 0.175 h, aBL 31.25 J/cm^2 (10.5 mins.), 50 mW/cm^2, read-out: MIC), 8 µg/mL; in assay [3] (Pseudomonas aeruginosa, light or radiation study, 0 J/cm^2 (Dark), read-out: MIC), 1020 µg/mL; in assay [3] (aBL 62.5 J/cm^2 (21 mins.), 50 mW/cm^2), “complete eradication”; in assay [3] (aBL 125 J/cm^2 (42 mins.), 50 mW/cm^2) it was “completely eradicated”. For the same compound, the “response of biofilms to aBL and menadione” value in assay [4] is “did not respond”. The “bactericidal activity, aerobic vs anaerobic culture” value in assay [5] is recorded as 4 fold. For the same compound, the “biofilm reduction by menadione in the absence of aBL” value in assay [6] (ex vivo porcine explants, no aBL) is reported as “no effect of biofilm reduction”. Also, the “biofilm reduction by aBL combined with menadione” value in assay [6] (ex vivo porcine wound, menadione 200 μg/mL + aBL 250 J/cm^2 (50 mW/cm^2)) was “up to 4.18 log10 CFU/g”.
